# Experimental data published in ChEMBL document CHEMBL1201862, “PubChem BioAssay data set” (2004).
# Calls of active or inactive are those of the source.
# Tests used:
# cells [1] = format: functional, cell-based
# cells [2] = format: functional, cell-based; remark: listed apart in the source
# [3] = target: T1, Trace amine-associated receptor 1 (Homo sapiens, UniProt Q96RJ0); test: Counterscreen for agonists of the human trace amine associated receptor 1 (hTAAR1): Fluorescence-based cell-based high throughput dose response assay to identify hTAAR1 agonist that also desensitize TAAR1 receptor response.; format: functional
# [4] = target: T1, Trace amine-associated receptor 1; test: Fluorescence-based cell-based high throughput dose response assay to identify agonists of the human trace amine associated receptor 1 (TAAR1).; format: functional
# [5] = target: Luciferin 4-monooxygenase (Photinus pyralis, UniProt P08659); test: firefly luciferase enzyme inhibitors, dose response, biochemical, luminescence (AID 1891)
# [6] = Luminescence Cell-Based Dose Confirmation HTS to Identify Inhibitors of Platelet Dense Granule Release. [Related pubchem assays: 1663 (Primary HTS), 1678 (Summary of Project)]; format: functional
# Beta-galactosidase = Beta-galactosidase (Escherichia coli, UniProt Q8VNN2); test: Dose response counterscreen for EBI2 assay utilizing the enzyme, b-galactosidase.; format: functional
# cells [7] = test: cells
# [8] = target: T2, Oxysterols receptor LXR-beta (Homo sapiens, UniProt P55055); format: functional, cell-based;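 further: Cell-based luminescence dose-response assay of agonist activity at LXR, run as a confirmatory counterscreen to a daf-12 agonist screen; HEK293 cells with Gal4-LXR fusion and GAL4-driven luciferase reporter; agonist potency from rising luciferase signal of a Gal4-LXR reporter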
# T2 sequence (P55055 whole entry): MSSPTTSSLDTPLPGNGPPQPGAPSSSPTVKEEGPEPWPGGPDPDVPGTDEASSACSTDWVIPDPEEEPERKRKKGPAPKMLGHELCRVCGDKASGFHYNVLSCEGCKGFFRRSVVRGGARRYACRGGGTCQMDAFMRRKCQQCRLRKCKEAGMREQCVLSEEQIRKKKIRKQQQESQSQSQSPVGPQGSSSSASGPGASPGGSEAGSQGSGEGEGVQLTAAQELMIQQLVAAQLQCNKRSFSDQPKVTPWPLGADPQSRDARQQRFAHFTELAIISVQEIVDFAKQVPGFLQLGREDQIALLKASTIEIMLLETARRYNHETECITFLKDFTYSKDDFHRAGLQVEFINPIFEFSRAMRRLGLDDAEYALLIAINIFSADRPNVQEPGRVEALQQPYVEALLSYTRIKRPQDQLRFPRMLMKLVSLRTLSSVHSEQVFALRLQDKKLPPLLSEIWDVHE
# [9] = target: Fructose-bisphosphate aldolase (Mycobacterium tuberculosis, UniProt P9WQA3); test: Fluorescence-based biochemical high throughput dose response assay for inhibitors of the fructose-bisphosphate aldolase (FBA) of M. tuberculosis.; format: functional
# [10] = human group III sPLA2 inhibitors, dose response, biochemical, QFRET, IC50 (AID 743457);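 further: green fluorescence rise as the enzyme cleaves BODIPY PC-A2 in liposomes; potency for inhibition of the enzyme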
# Mu-type opioid receptor = Mu-type opioid receptor (Homo sapiens, UniProt P35372); format: functional, cell-based;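 further: U2OS cells with beta-arrestin recruitment to OPRM1 by beta-gal complementation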
# [11] = tested on: Streptococcus sp. 'group A'; test: growth inhibition of control SK(-) GAS strain, dose response, counter-screen for streptokinase expression inhibitor project, luminescence, kanamycin, BacTiterGlo, confirmation (AID 1900); format: functional, organism-based
# Streptococcus = test: Group A Streptococcus viability loss, dose response, counter-screen for streptokinase expression inhibitor project, luminescence, BacTiterGlo (AID 1915); format: functional, organism-based;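 further: potency for reduction of bacterial viability or growth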
# Streptokinase A = target: T3, Streptokinase A (Streptococcus pyogenes serotype M1, UniProt P10520); test: S. pyogenes streptokinase expression inhibitors, potency, dose response, plasminogen activation absorbance, OD405 (AID 1914); format: functional, Streptococcus pyogenes M1 GAS;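 further: secreted streptokinase activity via plasminogen activation per viability signal from cell pellet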
# T3 sequence (P10520 whole entry): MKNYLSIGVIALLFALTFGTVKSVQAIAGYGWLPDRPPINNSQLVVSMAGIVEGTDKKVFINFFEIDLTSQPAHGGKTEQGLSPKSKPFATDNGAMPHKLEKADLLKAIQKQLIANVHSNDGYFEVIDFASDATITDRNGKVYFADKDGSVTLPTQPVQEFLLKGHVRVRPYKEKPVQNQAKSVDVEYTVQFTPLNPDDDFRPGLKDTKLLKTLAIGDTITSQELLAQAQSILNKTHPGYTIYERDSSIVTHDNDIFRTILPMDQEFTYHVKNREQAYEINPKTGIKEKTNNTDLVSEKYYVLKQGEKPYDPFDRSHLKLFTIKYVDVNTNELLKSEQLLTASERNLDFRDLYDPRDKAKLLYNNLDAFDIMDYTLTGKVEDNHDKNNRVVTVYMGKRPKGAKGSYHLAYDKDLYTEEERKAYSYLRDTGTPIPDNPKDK
# [12] = target: 5-hydroxytryptamine receptor 2A (Mus musculus, UniProt P35363); format: functional, cell-based;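 further: CHO-K1 cells with tagged receptor and beta-arrestin; agonist potency measured as compound-induced activation of the receptor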
# [13] = Late stage assay provider results from the probe development effort to identify selective inhibitors of heat shock protein 90 (HSP90): Absorbance-based cell proliferation assay in SKBR3 cells.; format: functional; settings: SK-BR-3
# [14] = target: T4, Calpain-2 catalytic subunit (Sus scrofa, UniProt P43367); test: pig calpain II inhibitor potency, dose response, biochemical, fluorogenic peptide substrate (AID 1420); format: functional
# T4 sequence (P43367 whole entry): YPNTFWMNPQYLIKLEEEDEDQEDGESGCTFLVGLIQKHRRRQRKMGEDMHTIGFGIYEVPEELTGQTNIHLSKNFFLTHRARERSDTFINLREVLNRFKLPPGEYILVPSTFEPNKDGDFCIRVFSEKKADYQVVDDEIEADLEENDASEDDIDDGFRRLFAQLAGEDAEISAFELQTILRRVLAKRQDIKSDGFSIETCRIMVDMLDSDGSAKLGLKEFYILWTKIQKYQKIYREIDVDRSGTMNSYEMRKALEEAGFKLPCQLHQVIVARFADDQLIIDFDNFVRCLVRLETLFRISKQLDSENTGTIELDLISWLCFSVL
# [15] = Luminescence Cell-Based Dose Response HTS to Identify Activators of Luciferase Translation or Activity in H4 […] Cells. [Related pubchem assays: 1829 (Project Summary), 1814 (Primary HTS)]; format: functional
# [16] = inhibitors of HIV Env-driven cell fusion, dose response, cherry-pick (AID 652057); format: functional, cell-based
# [17] = target: 1-phosphatidylinositol 4,5-bisphosphate phosphodiesterase gamma-1 (Homo sapiens, UniProt P19174); test: Counterscreen for inhibitors of phospholipase C isozymes (PLC-B3): Fluorescence-based biochemical high throughput dose response assay to identify inhibitors of phospholipase C isozymes (PLC-gamma1).
# H4 = test: Luminescence Cell-Based Dose Response HTS to Identify Activators of 5'UTR Stem-Loop Driven Prion Protein mRNA Translation in H4 Neuroglioblastoma Cells. [Related pubchem assays: 1829 (Project Summary), 1814 (Primary HTS)]; format: functional; settings: Homo sapiens
# [18] = inhibitors of clade B AD8 Env fusion, dose response, cell-based, cherry-pick (AID 652062); format: functional;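 further: luciferase signal from cell-cell fusion driven by HIV-1 clade B AD8 Env; potency is for inhibitors of fusion seen as a drop in luminescence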
# [19] = Luminescence Cell-Based Dose Confirmation HTS to Identify Activators of 5'UTR Stem-Loop Driven Alpha-Synuclein mRNA Translation in H4 Neuroglioblastoma Cells. [Related pubchem assays: 1829 (Project Summary), 1814 (Primary HTS)]; format: functional
# [20] = target: 1-phosphatidylinositol 4,5-bisphosphate phosphodiesterase beta-3 (Homo sapiens, UniProt Q01970); test: Fluorescence-based biochemical high throughput dose response assay to identify inhibitors of phospholipase C isozymes (PLC-B3).
# [21] = target: COUP transcription factor 2 (Homo sapiens, UniProt P24468); test: Luminescence-based cell-based high throughput dose response assay to identify inhibitors of COUP-TFII (NR2F2).; format: functional;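 further: HEK293 cells transiently cotransfected with COUP-TFII expression vector and reporter; luciferase reporter luminescence driven by COUP-TFII from the pX2-168 reporter plasmid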
# COUP transcription factor 2, sequence (P24468 whole entry): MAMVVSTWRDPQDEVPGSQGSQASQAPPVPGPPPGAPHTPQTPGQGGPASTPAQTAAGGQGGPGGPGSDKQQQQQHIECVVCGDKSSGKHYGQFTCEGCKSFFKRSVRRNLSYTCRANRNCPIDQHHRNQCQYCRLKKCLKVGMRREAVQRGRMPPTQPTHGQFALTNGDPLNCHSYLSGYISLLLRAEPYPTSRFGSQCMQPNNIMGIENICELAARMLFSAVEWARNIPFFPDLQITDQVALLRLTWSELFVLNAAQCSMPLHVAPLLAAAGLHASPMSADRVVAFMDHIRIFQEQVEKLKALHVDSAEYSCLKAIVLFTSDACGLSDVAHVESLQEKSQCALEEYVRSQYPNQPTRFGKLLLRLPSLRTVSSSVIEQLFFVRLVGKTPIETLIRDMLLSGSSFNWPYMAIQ
# T1 sequence (Q96RJ0 whole entry): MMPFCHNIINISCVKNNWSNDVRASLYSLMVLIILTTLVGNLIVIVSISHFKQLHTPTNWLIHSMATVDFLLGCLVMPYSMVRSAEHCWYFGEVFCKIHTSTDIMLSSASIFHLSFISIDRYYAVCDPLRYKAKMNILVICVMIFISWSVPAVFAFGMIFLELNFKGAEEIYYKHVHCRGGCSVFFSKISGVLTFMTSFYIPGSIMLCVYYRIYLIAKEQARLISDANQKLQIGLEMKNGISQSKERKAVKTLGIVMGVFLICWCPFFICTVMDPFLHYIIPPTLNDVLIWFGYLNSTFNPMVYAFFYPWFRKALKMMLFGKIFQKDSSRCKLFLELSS
# 1-phosphatidylinositol 4,5-bisphosphate phosphodiesterase beta-3, sequence (Q01970 whole entry): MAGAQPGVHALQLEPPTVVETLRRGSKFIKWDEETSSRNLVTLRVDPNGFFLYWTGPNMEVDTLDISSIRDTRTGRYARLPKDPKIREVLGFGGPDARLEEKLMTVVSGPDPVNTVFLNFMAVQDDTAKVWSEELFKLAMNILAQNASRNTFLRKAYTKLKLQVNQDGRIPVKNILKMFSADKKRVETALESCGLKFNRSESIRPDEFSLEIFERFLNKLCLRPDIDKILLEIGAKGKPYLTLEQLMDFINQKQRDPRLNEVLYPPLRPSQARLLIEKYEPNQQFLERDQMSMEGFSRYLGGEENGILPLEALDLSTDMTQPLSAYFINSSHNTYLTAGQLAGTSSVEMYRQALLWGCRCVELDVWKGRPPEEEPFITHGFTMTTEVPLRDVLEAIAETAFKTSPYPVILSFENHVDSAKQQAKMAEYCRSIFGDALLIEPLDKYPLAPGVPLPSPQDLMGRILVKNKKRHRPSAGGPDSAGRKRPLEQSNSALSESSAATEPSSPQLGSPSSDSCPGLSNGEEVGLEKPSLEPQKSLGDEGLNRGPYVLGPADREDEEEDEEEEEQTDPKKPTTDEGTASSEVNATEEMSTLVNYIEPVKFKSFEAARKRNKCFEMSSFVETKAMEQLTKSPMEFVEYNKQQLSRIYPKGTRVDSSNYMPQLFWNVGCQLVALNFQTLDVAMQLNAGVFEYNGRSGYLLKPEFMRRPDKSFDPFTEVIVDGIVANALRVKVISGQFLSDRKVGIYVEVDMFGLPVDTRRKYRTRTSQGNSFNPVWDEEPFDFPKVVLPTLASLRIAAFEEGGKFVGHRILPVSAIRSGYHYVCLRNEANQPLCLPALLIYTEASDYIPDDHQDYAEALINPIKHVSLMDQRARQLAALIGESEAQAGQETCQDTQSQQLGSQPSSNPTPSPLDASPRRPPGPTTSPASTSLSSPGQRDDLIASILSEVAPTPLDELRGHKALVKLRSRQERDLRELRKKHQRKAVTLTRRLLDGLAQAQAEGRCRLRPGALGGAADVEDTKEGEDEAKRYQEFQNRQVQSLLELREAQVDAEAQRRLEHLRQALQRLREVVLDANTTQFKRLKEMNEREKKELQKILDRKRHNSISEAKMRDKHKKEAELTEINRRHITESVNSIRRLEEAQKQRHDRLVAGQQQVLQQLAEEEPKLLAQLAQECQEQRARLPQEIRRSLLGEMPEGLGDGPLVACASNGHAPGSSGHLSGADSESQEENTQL
# Luciferin 4-monooxygenase, sequence (P08659 whole entry): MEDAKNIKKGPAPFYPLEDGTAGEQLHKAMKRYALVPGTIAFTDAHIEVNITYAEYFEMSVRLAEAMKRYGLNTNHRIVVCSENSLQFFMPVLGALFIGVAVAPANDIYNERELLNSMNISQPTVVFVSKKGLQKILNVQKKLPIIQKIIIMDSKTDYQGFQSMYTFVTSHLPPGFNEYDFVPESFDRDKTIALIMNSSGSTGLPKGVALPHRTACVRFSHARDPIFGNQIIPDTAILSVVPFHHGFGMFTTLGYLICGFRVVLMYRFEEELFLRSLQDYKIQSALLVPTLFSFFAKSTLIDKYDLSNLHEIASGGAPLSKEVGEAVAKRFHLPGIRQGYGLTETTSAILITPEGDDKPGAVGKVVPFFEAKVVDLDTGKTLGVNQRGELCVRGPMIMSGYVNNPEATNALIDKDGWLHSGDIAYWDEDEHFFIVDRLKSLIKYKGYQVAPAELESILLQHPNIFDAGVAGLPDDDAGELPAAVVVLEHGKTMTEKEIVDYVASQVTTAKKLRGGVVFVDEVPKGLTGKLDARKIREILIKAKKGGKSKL
# Beta-galactosidase, sequence (Q8VNN2 whole entry): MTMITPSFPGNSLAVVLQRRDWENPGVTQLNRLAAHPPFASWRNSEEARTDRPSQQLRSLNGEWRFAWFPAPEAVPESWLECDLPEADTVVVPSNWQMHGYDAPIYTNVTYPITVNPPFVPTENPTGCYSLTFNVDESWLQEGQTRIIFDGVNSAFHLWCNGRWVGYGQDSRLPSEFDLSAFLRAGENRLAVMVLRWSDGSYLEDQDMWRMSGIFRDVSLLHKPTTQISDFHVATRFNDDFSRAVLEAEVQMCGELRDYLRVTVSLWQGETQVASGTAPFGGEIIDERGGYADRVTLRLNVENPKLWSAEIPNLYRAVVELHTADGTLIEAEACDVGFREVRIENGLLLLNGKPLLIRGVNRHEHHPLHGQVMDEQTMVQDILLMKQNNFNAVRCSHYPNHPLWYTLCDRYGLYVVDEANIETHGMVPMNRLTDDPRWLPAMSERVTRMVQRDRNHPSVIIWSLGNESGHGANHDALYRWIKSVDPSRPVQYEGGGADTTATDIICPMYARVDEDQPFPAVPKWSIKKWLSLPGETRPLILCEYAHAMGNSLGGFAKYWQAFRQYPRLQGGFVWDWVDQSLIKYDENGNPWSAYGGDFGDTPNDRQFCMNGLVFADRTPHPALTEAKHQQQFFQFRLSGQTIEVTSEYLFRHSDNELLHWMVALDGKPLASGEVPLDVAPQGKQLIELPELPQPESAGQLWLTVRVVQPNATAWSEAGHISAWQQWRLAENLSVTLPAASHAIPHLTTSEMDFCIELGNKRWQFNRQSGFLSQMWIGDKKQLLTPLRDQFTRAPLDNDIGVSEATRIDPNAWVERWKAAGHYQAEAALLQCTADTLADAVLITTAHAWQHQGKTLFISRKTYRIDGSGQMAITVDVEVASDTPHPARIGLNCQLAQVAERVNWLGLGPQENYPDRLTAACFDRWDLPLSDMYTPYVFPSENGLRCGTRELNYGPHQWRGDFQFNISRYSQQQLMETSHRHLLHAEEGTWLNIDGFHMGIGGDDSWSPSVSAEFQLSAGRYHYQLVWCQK
# Fructose-bisphosphate aldolase, sequence (P9WQA3 whole entry): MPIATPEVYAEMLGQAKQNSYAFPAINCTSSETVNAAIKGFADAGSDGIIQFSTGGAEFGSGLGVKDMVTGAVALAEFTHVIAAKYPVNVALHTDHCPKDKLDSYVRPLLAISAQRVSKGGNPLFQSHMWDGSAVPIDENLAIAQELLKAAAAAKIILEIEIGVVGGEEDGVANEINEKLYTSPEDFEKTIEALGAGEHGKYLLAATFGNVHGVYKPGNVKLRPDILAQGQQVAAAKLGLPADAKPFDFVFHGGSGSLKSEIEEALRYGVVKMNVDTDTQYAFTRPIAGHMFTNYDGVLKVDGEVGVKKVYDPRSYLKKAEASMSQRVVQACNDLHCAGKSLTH
# Mu-type opioid receptor, sequence (P35372 whole entry): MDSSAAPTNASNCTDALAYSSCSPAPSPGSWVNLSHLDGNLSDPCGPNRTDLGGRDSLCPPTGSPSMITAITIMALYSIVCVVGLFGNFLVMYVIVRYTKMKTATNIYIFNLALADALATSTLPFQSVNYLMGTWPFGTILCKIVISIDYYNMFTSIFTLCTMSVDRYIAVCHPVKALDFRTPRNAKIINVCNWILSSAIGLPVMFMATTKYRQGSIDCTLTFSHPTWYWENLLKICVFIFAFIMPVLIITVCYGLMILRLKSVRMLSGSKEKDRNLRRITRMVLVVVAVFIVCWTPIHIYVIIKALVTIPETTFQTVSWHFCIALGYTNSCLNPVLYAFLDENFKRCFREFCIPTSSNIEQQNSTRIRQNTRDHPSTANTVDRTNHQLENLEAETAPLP
# 5-hydroxytryptamine receptor 2A, sequence (P35363 whole entry): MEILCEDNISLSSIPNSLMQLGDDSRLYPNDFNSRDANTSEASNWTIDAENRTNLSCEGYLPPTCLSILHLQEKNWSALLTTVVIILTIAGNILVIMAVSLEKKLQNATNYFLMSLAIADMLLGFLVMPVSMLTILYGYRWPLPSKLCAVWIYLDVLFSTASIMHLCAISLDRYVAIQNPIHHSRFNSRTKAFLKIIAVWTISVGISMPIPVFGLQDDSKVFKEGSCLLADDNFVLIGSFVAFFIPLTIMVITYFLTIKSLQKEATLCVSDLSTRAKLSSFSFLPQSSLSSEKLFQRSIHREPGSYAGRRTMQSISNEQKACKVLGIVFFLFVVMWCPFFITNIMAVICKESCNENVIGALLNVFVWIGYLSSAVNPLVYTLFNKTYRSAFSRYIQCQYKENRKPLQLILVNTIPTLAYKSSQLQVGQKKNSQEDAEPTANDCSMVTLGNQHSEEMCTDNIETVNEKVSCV
smiles,measurement,setting,value
CCOC(=O)C(NC(=O)CC)(N1CCc2ccccc2C1)C(F)(F)F (stereo unspecified),EC50,cells [1],> 29.9 µM (inactive)
same,IC50,cells [2],> 29.9 µM (inactive)
same,IC50,[3],1.03 µM (active)
same,EC50,[4],0.125 µM (active)
CNC(=O)/C(C#N)=C/c1ccc(-c2nc3ccccc3s2)o1,EC50,[5],> 112 µM (not active)
same,EC50,[6],> 112 µM (not active)
same,IC50,Beta-galactosidase,> 80 µM (inactive)
CCCC#Cc1ccc2c(c1)COc1c3ccccc3nn1-2,EC50,cells [7],> 67.5 µM (inactive)
same,EC50,[8],> 67.5 µM (inactive)
CCCn1c(-c2cc(OC)c(OC)c(OC)c2)nc2c1c(=O)[nH]c(=O)n2Cc1ccccc1,IC50,[9],1.32 µM (active)
O=C(NNC(=S)Nc1ccccc1)NNC(=S)Nc1ccccc1,IC50,[10],> 122 µM (inactive)
Nc1nc(CN2CCN(c3ccccc3)CC2)nc(N2CCCc3ccccc32)n1,EC50,Mu-type opioid receptor,92.5 µM (inactive)
same,EC50,[11],9.04 µM (active)
same,EC50,Streptococcus,> 150 µM (not active)
same,EC50,Streptokinase A,> 150 µM (not active)
same,EC50,[12],0.939 µM (active)
COC(=O)c1ccc2nc(NC(=O)C3CCCCC3)sc2c1,IC50,[13],51.6 µM (inactive)
O=C(Nc1nc(COc2ccccc2)cs1)C12CC3CC(CC(C3)C1)C2,IC50,[14],2.03 µM (not active)
same,EC50,[15],20.7 µM (active)
same,AC50,[16],49.8 µM (active)
same,IC50,[17],> 123 µM (inactive)
same,EC50,H4,19 µM (active)
same,AC50,[18],34.9 µM (active)
same,EC50,[19],26.8 µM (active)
same,IC50,[20],> 123 µM (inactive)
CC1(C)CC(=O)C=C(c2ccc(-c3cnc4ccccc4c3)cc2)C1=O,IC50,[21],4.87 µM (active)
